According to patent US7388016B2, “Dibenzonaphthyridine derivatives and methods of use thereof” (Wyeth, priority 2005, dated 2008):

Biological target: T1, PDK-1 (Homo sapiens, UniProt O15530)
T1 sequence (O15530 1-556): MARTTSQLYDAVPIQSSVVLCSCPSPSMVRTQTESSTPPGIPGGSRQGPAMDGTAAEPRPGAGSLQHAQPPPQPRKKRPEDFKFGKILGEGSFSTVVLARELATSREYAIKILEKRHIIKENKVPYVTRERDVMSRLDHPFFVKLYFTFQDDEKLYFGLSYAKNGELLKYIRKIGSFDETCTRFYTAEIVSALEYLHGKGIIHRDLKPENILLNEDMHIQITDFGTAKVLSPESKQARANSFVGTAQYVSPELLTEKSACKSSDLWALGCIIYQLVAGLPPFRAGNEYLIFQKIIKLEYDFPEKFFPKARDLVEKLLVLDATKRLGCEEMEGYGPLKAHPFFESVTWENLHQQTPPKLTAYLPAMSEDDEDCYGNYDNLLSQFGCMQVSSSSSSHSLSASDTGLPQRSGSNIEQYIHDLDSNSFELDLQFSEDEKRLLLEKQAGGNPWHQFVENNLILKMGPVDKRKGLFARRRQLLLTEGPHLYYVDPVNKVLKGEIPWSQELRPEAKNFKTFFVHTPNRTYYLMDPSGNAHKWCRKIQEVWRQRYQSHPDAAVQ
Assay: In vitro PDK-1 inhibition ELISA assay (phosphorylation of SGK1 on Threonine 256)
Format: biochemical
Conditions: PDK-1 phosphorylates 6xHIS tagged SGK1, 17 minutes reaction, chemiluminescent detection
Procedure: The ability of illustrative Dibenzonaphthyridine Derivatives to inhibit PDK-1 in vitro can be determined using the ELISA assay as decribed in Kobayashi et al., Biochem. J. 339:319-328 (1999) and Park et al., EMBO J. 18:3024-3033 (1999).
In this in vitro assay, PDK-1 kinase phosphorylates SGK1 on Threonine 256. After 17 minutes, the reaction is quenched via the addition of urea. The 6×HIS tagged SGK1 is then bound to 96 well Ni-NTA HisSorb plates and the phosphorylated SGK1 is detected using rabbit derived anti-phospho SGK antibody as the primary antibody and HRP coupled anti-rabbit antibody as the secondary antibody. HRP is then detected using a Chemiluminescent Substrate.

Row | Compound | IC50
1 | COc1cc2c(cc1OCC1CCN(C)CC1)ncc1c(N)nc3c(C)c(N)ccc3c12 [Ib-16, 11-methoxy-4-methyl-10-[(1-methylpiperidin-4-yl)methoxy]dibenzo[c,f]-2,7-naphthyridine-3,6-diamine] | 878 nM
2 | COCCOc1cc2ncc3c(N)nc4c(C)c(N)ccc4c3c2cc1OCCOC [Ib-17, 10,11-bis(2-methoxyethoxy)-4-methyldibenzo[c,f]-2,7-naphthyridine-3,6-diamine] | 275 nM
3 | COc1cc2c(cc1OCCCl)ncc1c(N)nc3c(C)c(N)ccc3c12 [Ib-18, 10-(2-chloroethoxy)-11-methoxy-4-methyldibenzo[c,f]-2,7-naphthyridine-3,6-diamine] | 42.5 nM
4 | COc1cc2c(cc1OCCN1CC1)ncc1c(N)nc3c(C)c(N)ccc3c12 [Ib-19, 10-(2-aziridin-1-ylethoxy)-11-methoxy-4-methyldibenzo[c,f]-2,7-naphthyridine-3,6-diamine] | 482 nM
5 | COc1cc2c(cc1OCCN(C)C)ncc1c(N)nc3c(C)c(N)ccc3c12 [Ib-20, 10-[2-(dimethylamino)ethoxy]-11-methoxy-4-methyldibenzo[c,f]-2,7-naphthyridine-3,6-diamine] | 377 nM
6 | COc1cc2c(cc1OCCCN(C)C)ncc1c(N)nc3c(C)c(N)ccc3c12 [Ib-21, 10-[3-(dimethylamino)propoxy]-11-methoxy-4-methyldibenzo[c,f]-2,7-naphthyridine-3,6-diamine] | 196 nM
7 | CCN(CC)CCOc1cc2ncc3c(N)nc4c(C)c(N)ccc4c3c2cc1OC [Ib-23, 10-[2-(diethylamino)ethoxy]-11-methoxy-4-methyldibenzo[c,f]-2,7-naphthyridine-3,6-diamine] | 347 nM
8 | COc1cc2c(cc1OCCc1ccccn1)ncc1c(N)nc3c(C)c(N)ccc3c12 [Ib-24, 11-methoxy-4-methyl-10-(2-pyridin-2-ylethoxy)dibenzo[c,f]-2,7-naphthyridine-3,6-diamine] | 2860 nM
9 | CCN(CC)CCCOc1cc2ncc3c(N)nc4c(C)c(N)ccc4c3c2cc1OC [Ib-27, 10-[3-(diethylamino)propoxy]-11-methoxy-4-methyldibenzo[c,f]-2,7-naphthyridine-3,6-diamine] | 295 nM
10 | COc1cc2c(cc1OCCN(C)CCN(C)C)ncc1c(N)nc3c(C)c(N)ccc3c12 [Ib-30, 10-{2-[[2-(dimethylamino)ethyl](methyl)amino]ethoxy}-11-methoxy-4-methyldibenzo[c,f]-2,7-naphthyridine-3,6-diamine] | 281 nM
11 | COc1cc2c(cc1OCCc1c[nH]c3ccccc13)ncc1c(N)nc3c(C)c(N)ccc3c12 [Ib-31, 10-[2-(1H-indol-3-yl)ethoxy]-11-methoxy-4-methyldibenzo[c,f]-2,7-naphthyridine-3,6-diamine] | 539 nM

Other lines, results leading:

Row | IC50 | Compound
12 | 261 nM | COc1cc2c(cc1OCCN1CCCC1)ncc1c(N)nc3c(C)c(N)ccc3c12 [Ib-22, 11-methoxy-4-methyl-10-(2-pyrrolidin-1-ylethoxy)dibenzo[c,f]-2,7-naphthyridine-3,6-diamine]
13 | 288 nM | COc1cc2c(cc1OCCC1CCCN1C)ncc1c(N)nc3c(C)c(N)ccc3c12 (stereo not shown) [Ib-25, 11-methoxy-4-methyl-10-[2-(1-methylpyrrolidin-2-yl)ethoxy]dibenzo[c,f]-2,7-naphthyridine-3,6-diamine]
14 | 324 nM | COc1cc2c(cc1OCCN1CCCCC1)ncc1c(N)nc3c(C)c(N)ccc3c12 [Ib-26, 11-methoxy-4-methyl-10-(2-piperidin-1-ylethoxy)dibenzo[c,f]-2,7-naphthyridine-3,6-diamine]
15 | 350 nM | COc1cc2c(cc1OCCN1CCCCCC1)ncc1c(N)nc3c(C)c(N)ccc3c12 [Ib-28, 10-(2-azepan-1-ylethoxy)-11-methoxy-4-methyldibenzo[c,f]-2,7-naphthyridine-3,6-diamine]
16 | 243 nM | COc1cc2c(cc1OCCCN1CCCCC1)ncc1c(N)nc3c(C)c(N)ccc3c12 [Ib-29, 11-methoxy-4-methyl-10-(3-piperidin-1-ylpropoxy)dibenzo[c,f]-2,7-naphthyridine-3,6-diamine]
